In PubChem BioAssay (NCI):
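Protocol summary: plate cells (96-well), add compound at 5 concentrations, incubate 48 h, interpolate endpoints linearly. Definition used: TGI = concentration required for complete inhibition of growth.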

What was measured:
Test in all cases: NCI-60 cell line screen, 48 h
[1] = tested on: TK-10 renal
[2] = tested on: HCT-15 colon
[3] = tested on: A549 NSCLC
[4] = tested on: HT29 colon
[5] = tested on: SW-620 colon
[6] = tested on: A498 renal
[7] = tested on: NCI/ADR-RES ovarian
[8] = tested on: MALME-3M melanoma
[9] = tested on: BT-549 breast
[10] = tested on: MCF7 breast
[11] = tested on: OVCAR-8 ovarian
[12] = tested on: MDA-MB-231 breast
[13] = tested on: SK-MEL-28 melanoma
[14] = tested on: UACC-257 melanoma
[15] = tested on: RPMI-8226 leukemia
[16] = tested on: SF-539 CNS
[17] = tested on: PC-3 prostate
[18] = tested on: COLO 205 colon
[19] = tested on: HL-60(TB) leukemia
[20] = tested on: DU-145 prostate
[21] = tested on: SNB-19 CNS
[22] = tested on: HOP-62 NSCLC
[23] = tested on: MDA-N
[24] = tested on: SK-MEL-5 melanoma
[25] = tested on: MDA-MB-435
[26] = tested on: T-47D breast
[27] = tested on: HCT-116 colon
[28] = tested on: 786-0 renal
[29] = tested on: NCI-H522 lung
[30] = tested on: M14 melanoma
[31] = tested on: NCI-H226 lung
[32] = tested on: U251 CNS
[33] = tested on: IGROV1 ovarian
[34] = tested on: SR leukemia
[35] = tested on: KM12 colon
[36] = tested on: SN12C renal
[37] = tested on: NCI-H23 lung
[38] = tested on: HOP-92 NSCLC
[39] = tested on: OVCAR-3 ovarian
[40] = tested on: SNB-75 CNS
[41] = tested on: CAKI-1 renal
[42] = tested on: LOX IMVI melanoma
[43] = tested on: UACC-62 melanoma
[44] = tested on: SK-OV-3 ovarian
[45] = tested on: RXF 393 renal
[46] = tested on: SK-MEL-2 melanoma
[47] = tested on: HS 578T breast
[48] = tested on: OVCAR-5 ovarian
[49] = tested on: SF-268 CNS
[50] = tested on: SF-295 CNS
[51] = tested on: UO-31 renal
[52] = tested on: EKVX NSCLC
[53] = tested on: K-562 leukemia
[54] = tested on: CCRF-CEM leukemia
[55] = tested on: MOLT-4 leukemia

Structure (SMILES): CC(NC(=O)CNP(=O)(c1ccccc1)c1ccccc1)C(=O)NC(Cc1ccccc1)C(=O)OCc1ccccc1 (stereo not given)
- TGI [1]: > 100 µM
- TGI [2]: > 100 µM
- TGI [3]: > 100 µM
- TGI [4]: > 100 µM
- TGI [5]: > 100 µM
- TGI [6]: > 100 µM
- TGI [7]: > 100 µM
- TGI [8]: > 100 µM
- TGI [9]: > 100 µM
- TGI [10]: 55 µM
- TGI [11]: > 100 µM
- TGI [12]: 96.6 µM
- TGI [13]: 49.3 µM
- TGI [14]: > 100 µM
- TGI [15]: 98.5 µM
- TGI [16]: > 100 µM
- TGI [17]: > 100 µM
- TGI [18]: > 10 µM
- TGI [19]: > 100 µM
- TGI [20]: > 100 µM
- TGI [21]: > 100 µM
- TGI [22]: > 100 µM
- TGI [23]: > 100 µM
- TGI [24]: 60.5 µM
- TGI [25]: > 100 µM
- TGI [26]: > 100 µM
- TGI [27]: > 100 µM
- TGI [28]: 48.1 µM
- TGI [29]: 49.8 µM
- TGI [30]: > 100 µM
- TGI [31]: > 100 µM
- TGI [32]: 62.3 µM
- TGI [33]: > 100 µM
- TGI [34]: 70.8 µM
- TGI [35]: > 100 µM
- TGI [36]: > 100 µM
- TGI [37]: > 100 µM
- TGI [38]: > 100 µM
- TGI [39]: > 100 µM
- TGI [40]: 48.5 µM
- TGI [41]: > 100 µM
- TGI [42]: 87.8 µM
- TGI [43]: > 100 µM
- TGI [44]: 51.3 µM
- TGI [45]: 75.5 µM
- TGI [46]: > 100 µM
- TGI [47]: > 100 µM
- TGI [48]: > 100 µM
- TGI [49]: 57.2 µM
- TGI [50]: 42.5 µM
- TGI [51]: > 100 µM
- TGI [52]: > 100 µM
- TGI [53]: > 10 µM
- TGI [54]: > 10 µM
- TGI [55]: 47.1 µM
